Reference: PMC8651256 (Environmental science & technology, 2021)
“Also recorded” adds a separate entry of the source.

Assays:
[1] = target: human serum albumin (HSA) (Homo sapiens, UniProt P02768); assay: Differential scanning fluorimetry; conditions: for EC50 / ΔTm / Kd / HSA binding (in words): 0.125 mM HSA; for EC50: 4-parameter variable slope model; for EC50 / Kd: mean ± SD; for ΔTm: maximal melting temperature shift; for HSA binding (in words): DSF; for thermal shift profile at different reaction volumes (volatility check): volumes of 10, 20, 50 and 200 μL per sealed well
Sequence of human serum albumin (HSA) (P02768 25-609): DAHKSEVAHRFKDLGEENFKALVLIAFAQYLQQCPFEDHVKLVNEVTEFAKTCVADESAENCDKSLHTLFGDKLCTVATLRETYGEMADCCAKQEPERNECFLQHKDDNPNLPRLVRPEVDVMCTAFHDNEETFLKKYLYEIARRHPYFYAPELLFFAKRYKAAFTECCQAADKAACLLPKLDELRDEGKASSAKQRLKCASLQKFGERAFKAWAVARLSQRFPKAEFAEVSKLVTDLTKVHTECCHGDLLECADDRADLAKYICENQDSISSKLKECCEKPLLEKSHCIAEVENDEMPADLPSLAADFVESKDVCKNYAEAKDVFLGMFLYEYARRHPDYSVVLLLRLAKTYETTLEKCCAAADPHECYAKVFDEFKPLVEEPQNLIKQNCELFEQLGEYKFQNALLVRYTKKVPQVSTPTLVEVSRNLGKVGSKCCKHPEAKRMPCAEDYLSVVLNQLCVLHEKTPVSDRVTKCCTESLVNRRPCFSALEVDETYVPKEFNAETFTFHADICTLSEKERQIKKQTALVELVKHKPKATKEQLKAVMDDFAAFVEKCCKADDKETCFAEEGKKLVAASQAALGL

[2] = DMSO as solvent; cited from earlier work
[3] = PFAS, single-site ligand binding model

Structure (SMILES)	EC50 ([1]; PFAS)	ΔTm ([1]; PFAS)	Kd [1, 3]	also measured
O=C(O)CCC(F)(F)C(F)(F)C(F)(F)F [3:3 FTCA, 2H,2H,3H,3H-perfluorohexanoic acid]	2060 ± 510 µM	2.24 ± 0.062 °C	1710 ± 470 µM	–
OCCC(F)(F)C(F)(F)C(F)(F)C(F)(F)F [4:2 FTOH, 1H,1H,2H,2H-perfluorohexane-1-ol]	–	0 ± 0 °C	–	HSA binding (in words) [1]: not bound by HSA; also recorded: did not bind HSA; thermal shift profile at different reaction volumes (volatility check) [1]: no differences
O=S(=O)(O)CCC(F)(F)C(F)(F)C(F)(F)C(F)(F)F [4:2 FTSA, 2H,2H,3H,3H-perfluorohexanesulfonic acid]	1450 ± 340 µM	3.49 ± 0.12 °C	1070 ± 470 µM	–
O=C(O)CCC(F)(F)C(F)(F)C(F)(F)C(F)(F)C(F)(F)F [5:3 FTCA, 2H,2H,3H,3H-perfluorooctanoic acid]	1480 ± 240 µM	3.62 ± 0.14 °C	620 ± 100 µM	–
OCCC(F)(F)C(F)(F)C(F)(F)C(F)(F)C(F)(F)C(F)(F)F [6:2 FTOH, 1H,1H,2H,2H-perfluorooctanol]	–	0 ± 0 °C	–	HSA binding (in words) [1]: not bound by HSA; also recorded: did not bind HSA; thermal shift profile at different reaction volumes (volatility check) [1]: no differences
O=S(=O)(O)CCC(F)(F)C(F)(F)C(F)(F)C(F)(F)C(F)(F)C(F)(F)F [6:2 FTSA, 2H,2H,3H,3H-perfluorooctane-1-sulfonate]	470 ± 290 µM	3.60 ± 0.47 °C	370 ± 340 µM	thermal shift profile at different reaction volumes (volatility check) [1]: no differences
O=C(O)CCC(F)(F)C(F)(F)C(F)(F)C(F)(F)C(F)(F)C(F)(F)F [6:3 FTCA, 2,H,2H,3H,3H-perfluorononanoic acid]	840 ± 210 µM	9.50 ± 0.20 °C	810 ± 230 µM	–
O=C(O)CCC(F)(F)C(F)(F)C(F)(F)C(F)(F)C(F)(F)C(F)(F)C(F)(F)C(F)(F)F [8:3 FTCA, 2,H,2H,3H,3H-perfluoroundecanoate]	1160 ± 420 µM	10.01 ± 0.17 °C	970 ± 170 µM	–
FC(OC(F)(F)C(F)(F)C(F)(F)F)C(F)(F)F (stereo not shown) [E1, 1,1,1,2,2,3,3-heptafluoro-3-(1,2,2,2-tetrafluoroethoxy)propane]	–	–	–	HSA binding (in words) [1]: bound by albumin; EC50 ([1]; EC50, PFAS): 2340 ± 560 µM
O=C(O)C(F)(OC(F)(F)C(F)(F)C(F)(F)F)C(F)(F)F (stereo not shown) [HFPO-DA, hexafluoropropylene oxide dimer acid]	1830 ± 870 µM	13.7 ± 0.17 °C	1600 ± 550 µM	time to rapid and complete conversion of HFPO-DA to E1 [2]: under 4 h
O=S(=O)(O)C(F)(F)C(F)(F)OC(F)(C(F)(F)F)C(F)(F)OC(F)C(F)(F)F (stereo not shown) [Nafion bp2]	1900 ± 590 µM	12.4 ± 0.17 °C	1510 ± 370 µM	–
O=C(O)C(F)(F)C(F)(F)C(F)(F)F [PFBA, perfluorobutanoic acid]	2610 ± 470 µM	6.48 ± 0.18 °C	2570 ± 780 µM	–
O=S(=O)(O)C(F)(F)C(F)(F)C(F)(F)C(F)(F)F [PFBS, perfluorobutanesulfonic acid]	1720 ± 560 µM	11.9 ± 0.11 °C	1650 ± 690 µM	–
O=C(O)C(F)(F)C(F)(F)C(F)(F)C(F)(F)C(F)(F)C(F)(F)C(F)(F)C(F)(F)C(F)(F)F [PFDA, perfluorodecanoic acid]	1110 ± 170 µM	17.2 ± 0.13 °C	1190 ± 590 µM	–
O=C(O)C(F)(F)C(F)(F)C(F)(F)C(F)(F)C(F)(F)F [PFHxA, Perfluorohexanoic acid]	1400 ± 270 µM	10.6 ± 0.24 °C	1640 ± 470 µM	–
O=S(=O)(O)C(F)(F)C(F)(F)C(F)(F)C(F)(F)C(F)(F)C(F)(F)F [PFHxS, perfluorohexanesulfonic acid]	–	–	–	thermal shift profile at different reaction volumes (volatility check) [1]: no differences
O=C(O)C(F)(F)C(F)(F)C(F)(F)C(F)(F)C(F)(F)C(F)(F)C(F)(F)C(F)(F)F [PFNA, perfluorononanoic acid]	600 ± 230 µM	13.4 ± 0.34 °C	580 ± 210 µM	–
O=C(O)C(F)(F)C(F)(F)C(F)(F)C(F)(F)C(F)(F)C(F)(F)C(F)(F)F [PFOA, perfluorooctanoic acid]	–	–	–	EC50 ([1]; EC50, PFAS): 840 ± 150 µM; Kd ([1]; Kd, PFOA stock in HEPES-buffered saline (HBS)): 830 ± 270 µM; Kd ([1]; Kd, PFOA stock in methanol (30% in HBS)): 830 ± 150 µM
O=S(=O)(O)C(F)(F)C(F)(F)C(F)(F)C(F)(F)C(F)(F)C(F)(F)C(F)(F)C(F)(F)F [PFOS, perfluorooctanesulfonic acid]	1130 ± 320 µM	16.2 ± 0.90 °C	–	–
O=C(O)C(F)(F)C(F)(F)C(F)(F)C(F)(F)F [PFPeA, perfluoropentanoic acid]	2140 ± 420 µM	13.1 ± 0.066 °C	2100 ± 560 µM	–
O=C(O)C(F)(F)C(F)(F)C(F)(F)C(F)(F)C(F)(F)C(F)(F)C(F)(F)C(F)(F)C(F)(F)C(F)(F)F [PFunDA, Perfluoroundecanoic acid]	1490 ± 48 µM	9.02 ± 0.47 °C	1360 ± 1060 µM	–
